20 molecules from patent publication US20240294551A1 (AMGEN INC., priority 2022, published 2024) can be followed below.

Experiment [1] concerns the target His-tagged KRAS G12D protein (Homo sapiens (Human), UniProt P01116, G12D). Put plainly: KRAS G12D TR-FRET Assay. It is filed as binding. In a few lines:
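Each incubation ran at room temperature: enzyme with compound for 30 minutes, peptide for one hour, and detection reagents (0.4 nM europium anti-6×His, 5 nM streptavidin-d2) for one hour more. Protein and peptide stocks were each diluted to 20 nM before addition.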
(TR-FRET usually uses a lanthanide donor and a delayed reading to cut background.)

In experiment [2] the target is GDP-bound KRAS protein (aa 1-169), containing both G12D and C118A amino acid substitutions (Homo sapiens (Human), UniProt P01116, C118A/G12D). The experiment in a line: KRAS G12D Coupled Nucleotide Exchange Assay. The experiment is classed as biochemical.
Chain of GDP-bound KRAS protein (aa 1-169), containing both G12D and C118A amino acid substitutions (P01116 other isoform, or with tags, fused parts or gaps G12D/C118A): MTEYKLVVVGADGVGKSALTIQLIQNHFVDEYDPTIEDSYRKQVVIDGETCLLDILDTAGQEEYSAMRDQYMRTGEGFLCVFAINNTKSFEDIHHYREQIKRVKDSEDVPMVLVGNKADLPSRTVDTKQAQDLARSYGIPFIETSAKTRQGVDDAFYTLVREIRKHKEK
Experiment [3] has as its system Phosphorylation of ERK1/2 in AsPC-1 cells. Put plainly: Phospho-ERK1/2 MSD Assay. The experiment is classed as cell-based, human. The settings on record: Homo sapiens, ASPC1, 2 h. The method, then: AsPC-1 (ATCC® CRL-1682™) cells were cultured in RPMI 1640 Medium (ThermoFisher Scientific 11875093) containing 10% fetal bovine serum (ThermoFisher Scientific 16000044) and 1× penicillin-streptomycin-glutamine (ThermoFisher Scientific 10378016). Sixteen hours prior to compound treatment, AsPC-1 cells were seeded in 96-well cell culture plates at a density of 25,000 cells/well and incubated at 37° C., 5% CO2. A compound dose-response titration was diluted in growth media, added to appropriate wells of a cell culture plate, and then incubated at 37° C., 5% CO2 for 2 hours. Following compound treatment, cells were washed with ice-cold Dulbecco's phosphate-buffered saline, no Ca^2+ or Mg^2+ (ThermoFisher Scientific 14190144), and then lysed in RIPA buffer (50 mM Tris-HCl pH 7.5, 1% Igepal, 0.5% sodium deoxycholate, 150 mM NaCl, and 0.5% sodium dodecyl sulfate) containing protease inhibitors (Roche 4693132001) and phosphatase inhibitors (Roche 4906837001). Phosphorylation of ERK1/2 in compound-treated lysates was assayed using Phospho-ERK1/2 Whole Cell Lysate kits (Meso Scale Discovery K151DWD) according to the manufacturer's protocol. Assay plates were read on a Meso Scale Discovery Sector Imager 6000, and data were analyzed using a 4-parameter logistic model to calculate IC50 values.

Setting [4] is: read-out: KRAS G12D Binding IC50.
The mark [5] stands for this setting: read-out: KRAS G12D Coupled Exchange IC50.
Setting [6] is: read-out: 2 h p-ERK (AsPC-1 cells), IC50.
Where [7] appears, read: TR-FRET, read-out: KRAS G12D Binding.
The mark [8] stands for this setting: 2 hours compound pre-incubation, read-out: KRAS G12D Coupled Exchange.
The mark [9] stands for this setting: read-out: 2 h p-ERK (AsPC-1 cells).

pIC50: −log10 of the molar value. Read-outs that look alike come from different tables or passages of the source.

What is called IC50 is the concentration that inhibits the measured activity by half.

Chain of His-tagged KRAS G12D protein (P01116 other isoform, or with tags, fused parts or gaps G12D): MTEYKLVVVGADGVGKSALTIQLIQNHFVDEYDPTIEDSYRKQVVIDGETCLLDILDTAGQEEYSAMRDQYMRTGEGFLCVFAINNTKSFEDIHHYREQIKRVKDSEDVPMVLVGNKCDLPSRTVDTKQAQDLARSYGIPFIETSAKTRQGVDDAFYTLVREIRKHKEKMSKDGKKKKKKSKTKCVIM

In the case of `Cc1c2ncc3c(nc(OCC4CN(C)CCO4)nc13)N1CCC[C@](C)(C1)NC(=O)CCCc1c(F)ccc3cc(O)cc-2c13` (mixture of isomers) [Example 24], the pIC50 in experiment [1] (setting [4]) is 7.70; in experiment [2] (setting [5]), 7.74; in experiment [3] (setting [6]), 5.94.

`Cc1cc2[nH]ncc2c2c1CCC[C@H](F)C(=O)N[C@@H]1CCCN(C1)c1nc(OC[C@@]34CCCN3C[C@H](F)C4)nc3c(F)c-2ncc13` (mixture of isomers) [Example 49, (17R)-14,30-difluoro-24-(((2R,7aS)-2-fluorotetrahydro-1H-pyrrolo[1,2-a]pyrrol-7a(5H)-yl)methoxy)-9-methyl-5,6,16,21,23,25,29-heptaazahexacyclo[24.3.1.1~17,21~.0~2,10~.0~3,7~.0~22,27~]hentriaconta-1(30),2,4,7,9,22,24,26,28-nonaen-15-one]: the pIC50 in experiment [1] (setting [4]) is 8.15; in experiment [2] (setting [5]) it was 8.30; in experiment [3] (setting [6]), 6.94.

As for `Cc1cc2[nH]ncc2c2c1CCCC(F)C(=O)N[C@@H]1COCCN(C1)c1nc(OC[C@@]34CCCN3C[C@H](F)C4)nc3c(F)c-2ncc13` (mixture of isomers) [Example 55], the pIC50 is 7.72 in experiment [1] (setting [4]), 7.85 in experiment [2] (setting [5]) and 5.86 in experiment [3] (setting [6]).

Take `Cc1cc2[nH]ncc2c2c1CCCCC(=O)N[C@]1(C)COCCN(C1)c1nc(OC[C@@]34CCCN3C[C@H](F)C4)nc3c(F)c-2ncc13` (mixture of isomers) [Example 67]: the pIC50 in experiment [1] (setting [4]) is 7.34; in experiment [2] (setting [5]), 7.47; in experiment [3] (setting [6]), 5.78.

Turning to `Cc1cc2[nH]ncc2c2c1CCCOC(=O)N1CC[C@@H]3CCN(C[C@@H]31)c1nc(OC[C@@]34CCCN3C[C@H](F)C4)nc3c(F)c-2ncc13` (mixture of isomers) [Example 75, (28S,32R)-33-fluoro-4-(((2R,7aS)-2-fluorotetrahydro-1H-pyrrolo[1,2-a]pyrrol-7a(5H)-yl)methoxy)-18-methyl-23-oxa-1,3,5,9,14,15,25-heptaazaheptacyclo[23.5.2.1~6,10~.0~2,7~.0~11,19~.0~12,16~.0~28,32~]tritriaconta-2,4,6,8,10(33),11,13,16,18-nonaen-24-one], the pIC50 in experiment [3] (setting [6]) is 6.67.

As to `Cc1cc2[nH]ncc2c2c1CCCC(=O)OCC1(O)CCCN(C1)c1nc(OC[C@@]34CCCN3C[C@H](F)C4)nc3c(F)c-2ncc13` (mixture of isomers) [Example 103], the pIC50 in experiment [1] (setting [4]) was 7.51; in experiment [2] (setting [5]) it was 7.49; in experiment [3] (setting [6]), 5.70.

As to `CC12CN(CCO1)c1nc(OC[C@@]34CCCN3C[C@H](F)C4)nc3c(F)c(ncc13)-c1c(c(Cl)cc3[nH]ncc13)CCCc1nc2co1` (mixture of isomers) [Example 380], the pIC50 in experiment [1] (setting [7]) was 6.81; in experiment [2] (setting [8]), 7.54; in experiment [3] (setting [9]), 5.77.

Turning to `Fc1c2ncc3c(nc(OC[C@@]45CCCN4C[C@H](F)C5)nc13)N1CCC[C@H](C1)Cn1ncc(n1)[C@@H]1C[C@@H]1c1c(Cl)cc3[nH]ncc3c1-2` (mixture of isomers) [Example 383], the pIC50 in experiment [1] (setting [7]) is 7.89; in experiment [2] (setting [8]), 8.10; in experiment [3] (setting [9]), 7.12.

For the molecule `Cc1cc2[nH]ncc2c2c1CCCOC(=O)O[C@@H]1C[C@H](F)CN(C1)c1nc(OC[C@@]34CCCN3C[C@H](F)C4)nc3c(F)c-2ncc13` (racemic) [Example 95], the pIC50 in experiment [1] (setting [4]) is 7.42; in experiment [3] (setting [6]), 5.61. In addition, the half-inhibitory concentration (IC50) in experiment [2] (setting [5]) was 0.036 µM.

Consider `Cc1cc2[nH]ncc2c2c1CCCOC(=O)OC1CC[C@@H]3CC[C@H]1N3c1nc(OC[C@@]34CCCN3C[C@H](F)C4)nc3c(F)c-2ncc13` (racemic) [Example 96], for which the pIC50 in experiment [1] (setting [4]) is 7.17; in experiment [3] (setting [6]) it was 5.86. Also, in experiment [2] (setting [5]), the IC50 is recorded as 0.054 µM.

Consider `Cc1cc2[nH]ncc2c2c1[C@H]1C[C@@H]1COC(=O)O[C@@H]1CCCN(C1)c1nc(OC[C@@]34CCCN3C[C@H](F)C4)nc3c(F)c-2ncc13` (racemic) [Example 114], for which the pIC50 in experiment [1] (setting [4]) was 7.72; in experiment [3] (setting [6]) it was 6.46. In addition, the half-maximal inhibitory concentration (IC50) in experiment [2] (setting [5]) stood at 0.012 µM.

`O=C1OCCCc2c(Cl)cc3[nH]ncc3c2-c2ncc3c(nc(OC[C@@]45CCCN4C[C@H](F)C5)nc3c2F)N2C[C@H]3C[C@H]3[C@H](C2)O1` (racemic) [Example 179]: the pIC50 was 8.05 in experiment [1] (setting [4]), 8.30 in experiment [2] (setting [5]) and 7.10 in experiment [3] (setting [6]).

As for `O=C1N[C@H]2CC[C@@H](O)CN(C2)c2nc(OC[C@@]34CCCN3C[C@H](F)C4)nc3c(F)c(ncc23)-c2c(c(Cl)cc3[nH]ncc23)CCCO1` (racemic) [Example 283, (26S,29R)-18-chloro-32-fluoro-4-(((2R,7aS)-2-fluorotetrahydro-1H-pyrrolo[1,2-a]pyrrol-7a(5H)-yl)methoxy)-29-hydroxy-23-oxa-1,3,5,9,14,15,25-heptaazahexacyclo[24.4.1.1~6,10~.0~2,7~.0~11,19~.0~12,16~]dotriaconta-2,4,6(32),7,9,11,13,16,18-nonaen-24-one], the pIC50 is 5.49 in experiment [1] (setting [4]) and 5.00 in experiment [3] (setting [6]). In experiment [2] (setting [5]), the IC50 is listed as 1 µM.

Turning to `O=C1OC/C=C/c2c(Cl)cc3[nH]ncc3c2-c2ncc3c(nc(OC[C@@]45CCCN4C[C@H](F)C5)nc3c2F)N2CCC[C@H](C2)O1` (single isomer, unassigned) [Example 116], the pIC50 in experiment [1] (setting [4]) was 7.77; in experiment [2] (setting [5]), 7.92; in experiment [3] (setting [6]), 6.57.

With `Cc1cc2[nH]ncc2c2c1CCCC(F)C(=O)N[C@@H]1CCCCN(C1)c1nc(OC[C@@]34CCCN3C[C@H](F)C4)nc3c(F)c-2ncc13` (single isomer, unassigned) [Example 159], the figures for the pIC50 in experiment [1] (setting [4]), in experiment [2] (setting [5]) and in experiment [3] (setting [6]) were 8.22, 8.30 and 7.10, respectively.

Turning to `Cc1cc2[nH]ncc2c2c1C[C@@H](C)COC(=O)O[C@@H]1CCCN(C1)c1nc(OC[C@@]34CCCN3C[C@H](F)C4)nc3c(F)c-2ncc13` (single isomer, unassigned) [Example 214], the values for the pIC50 in experiment [1] (setting [4]), in experiment [2] (setting [5]) and in experiment [3] (setting [6]) were 7.66, 7.74 and 6.30, respectively.

For `Cc1cc2[nH]ncc2c2c1C[C@H](C)COC(=O)O[C@@H]1CCCN(C1)c1nc(OC[C@@]34CCCN3C[C@H](F)C4)nc3c(F)c-2ncc13` (single isomer, unassigned) [Example 215], the values for the pIC50 in experiment [1] (setting [4]), in experiment [2] (setting [5]) and in experiment [3] (setting [6]) were 7.82, 7.92 and 6.97, respectively.

As for `O=C1CCCOc2ccc3[nH]ncc3c2-c2ncc3c(nc(OC[C@@]45CCCN4C[C@H](F)C5)nc3c2F)N2CCC[C@H](C2)O1` [Example 30, (17R)-30-Fluoro-24-(((2R,7aS)-2-fluorotetrahydro-1H-pyrrolo[1,2-a]pyrrol-7a(5H)-yl)methoxy)-11,16-dioxa-5,6,21,23,25,29-hexaazahexacyclo[24.3.1.1˜17,21˜.0˜2,10˜.0˜3,7˜.0˜22,27˜]hentriaconta-1(30),2,4,7,9,22,24,26,28-nonaen-15-one], the pIC50 in experiment [1] (setting [4]) was 6.92; in experiment [2] (setting [5]) it was 6.85; in experiment [3] (setting [6]), 5.84.

Turning to `O=C1COCCCc2c(Cl)cc3[nH]ncc3c2-c2ncc3c(nc(OC[C@@]45CCCN4C[C@H](F)C5)nc3c2F)N2CCC[C@H](C2)O1` [Example 37, (18R)-9-Chloro-31-fluoro-25-(((2R,7aS)-2-fluorotetrahydro-1H-pyrrolo[1,2-a]pyrrol-7a(5H)-yl)methoxy)-14,17-dioxa-5,6,22,24,26,30-hexaazahexacyclo[25.3.1.1˜18,22˜.0˜2,10˜.0˜3,7˜.0˜23,28˜]dotriaconta-1(31),2,4,7,9,23,25,27,29-nonaen-16-one bis(2,2,2-trifluoroacetate)], the pIC50 is 8.30 in experiment [1] (setting [4]), 8.40 in experiment [2] (setting [5]) and 7.24 in experiment [3] (setting [6]).

As to `O=C1OCCc2c(Cl)cc3[nH]ncc3c2-c2ncc3c(nc(OC[C@@]45CCCN4C[C@H](F)C5)nc3c2F)N2CCC[C@@]3(C[C@H](CO3)O1)C2` [Example 314, (1R,4R)-11-chloro-33-fluoro-25-(((2R,7aS)-2-fluorotetrahydro-1H-pyrrolo[1,2-a]pyrrol-7a(5H)-yl)methoxy)-2,5,7-trioxa-14,15,20,24,26,28-hexaazaheptacyclo[26.3.1.1~1,4~.1~19,23~.0~10,18~.0~13,17~.0~22,27~]tetratriaconta-10,12,15,17,19(33),20,22,24,26-nonaen-6-one], in experiment [3] (setting [6]), the pIC50 is 6.23.
